Data taken from paper PMC8000760, “Potential Effect of Pseudevernia furfuracea (L.) Zopf Extract and Metabolite Physodic Acid on Tumour Microenvironment Modulation in MCF-10A Cells” (Biomolecules, 2021).

Columns and labels:
[1] = test system: N-cadherin, fibronectin, α-SMA, Slug in BJ-5ta; assay: Western blot of mesenchymal markers in TGF-β-stimulated fibroblasts; assay type: cell-based; settings: TGF-β-stimulated BJ-5ta, 48 and 72 h, time- and dose-dependent manner
Protocol: (§1) The MCF-10A and BJ-5ta cells were seeded and cultivated for 24 h in a complete medium. One day after seeding, 30 ng/mL of TGF-β was added and cultivated for 7 days (d). TGF-β was added to induce epithelial–mesenchymal transition in tested cell lines. Lichen extract P. furfuracea (L.) Zopf and its metabolite physodic acid were added at time 0 h and then incubated for 24, 48 and 72 h for various analyses, as described in Figure 1.
(§2) Proteins isolated from MCF-10A and BJ-5ta cell lysates were determined by the Pierce® BCA Protein Assay Kit (Thermo Scientific, Rockford, IL, United States), using bovine serum albumin (BSA) as the standard, and measured by an automated Cytation™ 3 Cell Imaging Multi-Mode Reader (Biotek) at a wavelength of 570 nm. Proteins were separated on SDS-PAA gel (12%) at 100 V for 2 h and then transferred to a polyvinylidene difluoride (PVDF) membrane using the iBlot dry blotting system (Thermo Scientific, Rockford, IL, United States). […] After incubation, the membrane was again washed in TBS-Tween (3 × 5 min), and the expression of the protein was detected using a chemiluminescent ECL substrate (Thermo Fisher Scientific) and MF-ChemiBIS 2.0 Imaging System (DNR BIO-Imaging Systems, Jerusalem, Israel). The detected band was then analysed densitometrically using the Image Studio Lite software (LI-COR Biosciences, Lincoln, NE, USA). […]

[2] = test system: fibronectin in TGF-β-stimulated MCF-10A cells; assay: Fibronectin expression, immunofluorescence; assay type: cell-based, human; settings: IC10, TGF-β-stimulated MCF-10A
Protocol: as §1
(§3) The MCF-10A cells at a density of 2 × 10^3/cm^2, plated on 22 mm^2 glass coverslips, were stimulated for 7 days with 30 ng/mL of TGF-β. […] After treatment, cells were washed with PBS, fixed with 4% paraformaldehyde (pH 7.2) for 10 min, permeabilised by 0.1% Triton X-100 (Sigma-Aldrich) for 10 min at RT and then washed three) times with PBS for 5 min. Glass coverslips were then incubated with Swine serum (1:30) for 30 min for blocking non-specific binding. Primary antibodies were diluted according to the manufacturer’s instructions (Table 2) and transferred to coverslips for 90 min. […] All coverslips were mounted in Vectashield (Cole-Parmer, Illinois, USA) and immunofluorescence pictures were taken with the same exposition settings by the Nikon Eclipse 90i fluorescence microscope (Nikon, Tokyo, Japan) equipped with filter cubes for FITC and DAPI. Images were then analysed using ImageJ (NIH) software.

[3] = test system: N-cadherin in TGF-β-stimulated MCF-10A cells; assay: N-cadherin expression, immunofluorescence staining; assay type: cell-based, human; settings: IC10, 72 h, compared to TGF-β alone
Protocol: as §1, §3

[4] = test system: chorioallantoic membrane (CAM) of fertilised quail eggs; assay: Ex ovo chorioallantoic membrane (CAM) assay; assay type: in vivo, Coturnix coturnix japonica
Protocol: Fertilised quail eggs (Coturnix coturnix japonica; 20 specimens) were obtained from the certified farm (Mala Ida, Slovakia) and incubated horizontally in a forced draft constant humidity incubator at 38.2 ± 0.5 °C and 58% relative humidity. After 56 h, the eggs were sterilised by wiping the surface lightly with 70% ethanol and allowed to dry. An incision was made in the middle ventral part of the shell, using sterile scissors, and the embryos were deposited in six-well tissue culture dishes (Sigma-Aldrich), which were then returned to the humidified incubator for an additional 4 days, until the start of the experiments. At day 7 (96 h after day 3), a sterilised silicone ring (10 mm inner diameter) was laid on CAM surface for the deposition of testing solution. […] At least 10 eggs were used in every experimental group. The photographs of CAM blood vessels’ formation inside of rings were obtained using a stereomicroscope Olympus SZ61 (Tokyo, Japan) and digital camera PROMICRA 3.2 (Prague, Czech Republic). Subsequently, photographs were pre-processed using QuickPHOTO MICRO microscope software (Promicra; Prague, Czech Republic). Representative images were then analysed using Wimasis Image Analysis automatic software to quantify the angiogenesis.

Slug in BJ-5ta = assay: Western blot of Slug in TGF-β-stimulated fibroblasts; assay type: cell-based; settings: 72 h treatment
Protocol: as §1, §2

pSmad2/3 in BJ-5ta = assay: Western blot of phospho-Smad2/3 in TGF-β-stimulated fibroblasts; assay type: cell-based; settings: TGF-β-stimulated BJ-5ta, time-dose manner
Protocol: as §1, §2

[5] = test system: N-cadherin in TGF-β-stimulated MCF-10A cells; assay: N-cadherin expression, flow cytometry; assay type: cell-based, human; settings: IC10, 24, 48, 72 h, compared to TGF-β alone
Protocol: as §1
The MCF-10A cells (1 × 10^4/well) were seeded in Petri dishes and stimulated with […] TGF-β for 7 days. […] After detaching, using Trypsin/EDTA, cells were harvested and pelleted by centrifugation at 1200 rpm for 5 min. Pellet was re-suspended in PBS and divided for a particular analysis. Cells were stained prior to analyses with E-Cadherin Mouse mAb (Alexa Fluor 488 conjugate) or N-cadherin Rabbit mAb (Alexa Fluor 647 conjugate) (Cell Signalling) for 15 min at RT in the dark. For the cell cycle analyses, cells were re-suspended in staining solution (final concentration 0.1% Triton X-100, 0.5 mg/mL ribonuclease A and 0.025 mg/mL propidium iodide (PI)), and incubated in the dark at RT for 30 min. All samples were analysed using a FACS Calibur flow cytometer (Becton Dickinson, San Jose, CA, USA). The IgG isotype control checking was performed for every used antibody.

BJ-5ta = assay: MTS cell viability assay; assay type: cell-based; settings: 72 h
Protocol: Briefly, MCF-10A and BJ-5ta were seeded in 96-well culture plates, and after 24 h incubation, treated with various ranges of concentrations of tested compounds (10–100 μg/mL) for 72 h. At the same time, HUVECs were seeded in a gelatine-coated 96-well plate and treated with the same aliquots of indicated compounds in the presence or absence of VEGF (Vascular endothelial growth factor) (25 ng/mL) for 48 h. Cell viability was evaluated by measuring the absorbance at 490 nm using the automated CytationTM 3 Cell Imaging Multi-Mode Reader (Biotek, Winooski, VT, USA). Three independent experiments were performed at different intervals.

[6] = VEGF-stimulated (25 ng/mL), IC10, 72 h, compared to VEGF alone

CCCCCC(=O)Cc1cc(O)cc2c1C(=O)Oc1cc(O)c(C(=O)O)c(CCCCC)c1O2 [Phy, physodic acid]
mesenchymal markers expression [1]: significantly decrease
fibronectin expression, immunofluorescence [2]: downregulation
N-cadherin expression, immunofluorescence [3]: significant decrease
total branching points [4, 6]: significant decrease
total vascular network length [4, 6]: significant decrease
vascular density [4, 6]: significant decrease
total branching points ([4]; absence of VEGF): not significantly affected
vessel density ([4]; non-stimulated group (absence of VEGF)): significant change
Slug protein (Slug in BJ-5ta): downregulation
phosphorylation levels of Smad2 and Smad3 (pSmad2/3) (pSmad2/3 in BJ-5ta): decreased
N-cadherin expression, flow cytometry [5]: significantly reduced
IC10 (BJ-5ta): 46.35 ± 0.39 µM
IC50 (BJ-5ta): 83.2 ± 1.02 µM
